Data from US6984640B1, “Antiparasitic artemisinin derivatives (endoperoxides)” (Bayer Aktiengesellschaft, priority 1998, dated 2006).

Legend:
Type in all cases: cell-based
[1] = test system: Neospora caninum; test: Screening against Neospora caninum cell cultures in vitro (VERO or ED host cells); set-up: key: 0 = no effect monolayer completely destroyed; 1 = weak effect monolayer partly destroyed, parasite clumps can be seen; 2 = full effect monolayer intact, no tachyzoites observable; T = cytotoxic cells are dead, lysed; details: microscopic evaluation 4 days after treatment
Procedure: Screening was conducted in 96-well plates (Falcon 3872). A monolayer of host cells (VERO or ED) were placed on a cell culture plate. Non-infected mono-layers of cells were cultured in two 50 ml tissue culture bottles ([…] cell culture area). The cell layer was detached with trypsin-EDTA (5 ml. Gibco 45300-019) in a CO2-culture cupboard at 37° C. After 10 minutes, most of the cells were detached. The cells were transferred with a 5 ml pipette into a 50 ml centrifuge tube (Greiner, B769331) containing about 1 ml warmed fetal calf serum. After centrifugation for 5 minutes at 1500 rpm (Varifuge 3.0, Heraeus), the liquid was removed and the cell pellet suspended in RPMI medium (100 ml, 95% RPMI 1640, 2% FCS, 1% L-glutamine, 1% sodium hydrogen carbonate, 1% penicillin/streptomycin). The cell suspension was pipetted into six 96-well plates at 150 μl per well. The coated cell culture plates were placed in an incubation cupboard at 37° C. under 5% CO2 for 24 hours. The cells were then infected with Neospora caninum tachyzoites at a concentration of 48,000 tachyzoites per well. This was followed by incubation at 37° C. under 5% CO2 for 24 hours.
The test compounds (0.5-1.5 mg) were weighed into 1.5 ml eppendorf vessels and dissolved in 1 ml dimethyl sulphoxide, corresponding to a dilution of about 1×10^−3 g ml^−1. The medium used for further dilution consisted of 87% RPMI 1640, 10% FCS, 1% L-glutamine, 1% sodium hydrogen carbonate, 1% penicillin/streptomycin. In the first screening, concentrations of […], […] and 10^−7 g ml^−1 were used. The diluted preparations were then transferred to the cell culture plates at a volume of 150 μl per well after 24 hour infection with Neospora caninum. For the first row, untreated medium was used; this row contained infected and uninfected cells as controls. The cell plate was incubated at 37° C. under 5% CO2 for 5 days. Microscopic evaluation was conducted 4 days after treatment and 5 days after infection at a magnification of 25×10 in an inverse microscope according to the following evaluation scheme.

[2] = test system: Plasmodium falciparum D6 strain (chloroquine sensitive); test: In vitro screening against Plasmodium falciparum, 3H-hypoxanthine incorporation, D6 strain; details: for In vitro activity: IC50 / In vitro activity: IC90 / In vitro activity: (IC10): 66 hours incubation
Source text: (§1) Two parasite strains—W2 resistant to chloroquine, and D6 sensitive to chloroquine but resistant to mefloquine were used. In Table IV below, the best compounds should show no cross resistance between the two strains.
(§2) The assay relies on incorporation of radiolabelled hypoxanthine by the parasite and inhibition of incorporation is attributed to activity of known or candidate antimalarial drugs. For each assay, proven antimalarials such as chloroquine, mefloquine, quinine, artemisinin and pyrimethamine were used as controls. The incubation period was 66 hours, and the starting parasitemia was 0.2% with 1% hematocrit. The medium was an RPMI-1640 culture with no folate or p-aminobenzoic acid. Albumax rather than 10% normal heat inactivated human plasma was used as, with Albumax, less protein binding is observed, and compounds elicit slightly higher activities in this model. If a compound was submitted with no prior knowledge of activity, it was dissolved directly in dimethyl sulphoxide (DMSO), and diluted 400 fold with complete culture medium. The unknown compound was started at a maximum concentration of 50,000 ng ml^−1 and sequentially diluted 2-fold for 11 times to give a concentration range of […]. These dilutions were performed automatically by a Biomek 1000 Liquid Handling System in 96-well microtiter plates. The diluted drugs were then transferred to test plates, 200 μl of parasitized erythrocytes were added, and incubated at 37° C. in a controlled environment of 5% CO2, 5% O2 and 90% N2. After 42 hours, 25 μl of ^3H-hypoxanthine was added, and the plates incubated for an additional 24 hours. After 66 hours, the plates were frozen at −70° C. to lyse the red cells, and then thawed and harvested onto glass fiber filter mats in a 96-well harvester. The filter mats were then counted in a scintillation counter. For each drug, the concentration response profile was determined and 50%, 90% and 10% inhibitory concentrations (IC50 IC90 and IC10) were determined by a non-linear logistic dose response analysis program.
(§3) A prescreen format can be used wherein a 3-dilution assay may be used to determine activity at high medium or low concentrations. The concentrations were selected as 50,000, 500 and 50 ng ml^−1. These were performed in duplicate on a 96-well format plate with 14 test compounds and one known (standard) compound per plate. The system was automated with a Biomek diluter for mixing and diluting the drugs, and adding drugs and parasites to a test plate. In the prescreen format, if the ANALYSIS FIELD (AP) has a “<”, then the compound was “very active” and the IC values are most likely to be below the last dilution value (in nanograms/ml), which is listed next to AF. In most cases, these compounds were run again at lower starting concentration to determine the true IC value. If the AF has a “>”, then the IC value is greater than the prescreen dilution value; thus “AF>250” means that the IC value is greater than 250 ng ml^−1 and no further screening is carried out. In such cases, values of 0.00 are entered for IC values.

[3] = test system: Eimeria tenella; test: Screening against Eimeria tenella cell cultures in vitro (chick kidney cells); set-up: key: 3 = very active no intact parasites/well; 2 = active 1-6 parasites per well; 1 = weakly active up to 1 intact schizont/optical field of vision; 0 = inactive >1 intact schizont/optical field of vision; T = cytotoxic host cells are dead; details: day 5 post infection
Procedure: Cells from kidneys of 19 day old chicks are cultured as monolayers in 96-well plates (Falcon 3872) in a medium of Hanks lactalbumine hydrolysate, 5% fetal calf serum, 1% glutamine and 1% non-essential amino acids. After two days at 42° C. under 5% CO2, the culture was infected with excised sporozoites of Eimeria tenella at about […] per well. Test compounds were dissolved in DKSO and diluted with culture medium to a maximum end concentration of 10 μg ml^−1. The dilution steps were 1:10. On day 5 post infection, the cultures were evaluated under a microscope at 100-fold magnification and the condition of the host cells and the amount of intact schizonts and free merozoites was determined.

[4] = test system: Plasmodium falciparum W2 strain (chloroquine resistant); test: In vitro screening against Plasmodium falciparum, 3H-hypoxanthine incorporation, W2 strain; details: for ANALYSIS FIELD (AF): bound on the IC values in prescreen format: prescreen 3-dilution assay, 0.00 entered for IC values; for In vitro activity: IC50 / In vitro activity: IC90 / In vitro activity: (IC10): 66 hours incubation
Source text: as §1, §2, §3

`CC1CCC2C(C)C(NCc3cc(C(F)(F)F)cc(C(F)(F)F)c3)OC3OC4(C)CCC1C32OO4` (stereo not shown) [Example 23] was tested, and the “Evaluation of effect against Neospora caninum” value (shortened to “Evaluation of effect”) ([1]; Dose 10^−6 g/ml) was 0, the “ANALYSIS FIELD (AF): bound on the IC values in prescreen format” value (from here on “ANALYSIS FIELD (AF): bound”) ([2]; prescreen 3-dilution assay, 0.00 entered for IC values) was 0.00; 0.00; AF > 250 ng/ml and the “Effectiveness rating against Eimeria tenella” value (“Effectiveness rating” for short) ([3]; Dose 10^−5 g/ml) was “T”. For the same compound, the “Effectiveness rating” value ([3]; Dose 10^−7 g/ml) was 0 (0 = inactive >1 intact schizont/optical field of vision) and the “ANALYSIS FIELD (AF): bound” value [4] was 0.00; 0.00; AF > 250 ng/ml.

With `CC1CCC2C(C)C(F)OC3OC4(C)CCC1C32OO4` (stereo not drawn) [Example 1, 10β-fluoro-10-deoxo-10-dihydroartemisinin] the “In vitro activity: IC50” value [2] was 0.74 ng/mL, the “In vitro activity: IC90” value [2] was 1.36 ng/mL and the “In vitro activity: IC50” value [4] was 0.69 ng/mL. For the same compound, the “In vitro activity: IC90” value [4] was 0.98 ng/mL.

With `CC1CCC2[C@@H](C)C(=O)OC3O[C@]4(C)CCC1C32OO4` (stereo partly shown) [Artemisinin, artemisinin] the “Evaluation of effect” value ([1]; Dose 10^−5 g/ml) was 0, the “Effectiveness rating” value ([3]; Dose 10^−5 g/ml) was 2 (2 = active 1-6 parasites per well) and the “Effectiveness rating” value ([3]; Dose 10^−6 g/ml) was 1 (1 = weakly active up to 1 intact schizont/optical field of vision). For the same compound, the “Effectiveness rating” value ([3]; Dose 10^−7 g/ml) was 0 (0 = inactive >1 intact schizont/optical field of vision).

For `CC1CCC2C(C)C(NCc3ccccc3)OC3OC4(C)CCC1C32OO4` (stereo not shown) [Example 21], the “Evaluation of effect” value ([1]; Dose 10^−5 g/ml) was 2, the “Evaluation of effect” value ([1]; Dose 10^−6 g/ml) was 0 and the “In vitro activity: (IC10)” value [2] was 0.79 ng/mL. The “In vitro activity: IC50” value [2] was 1.77 ng/mL, the “In vitro activity: IC90” value [2] was 3.96 ng/mL and the “Effectiveness rating” value ([3]; Dose 10^−6 g/ml) was 0 (0 = inactive >1 intact schizont/optical field of vision).

In the case of `CC1CCC2C(C)C(Nc3ccc(F)cc3)OC3OC4(C)CCC1C32OO4` (stereo not shown) [Example 16], the “In vitro activity: (IC10)” value [2] is reported as 0.48 ng/mL, the “In vitro activity: IC50” value [2] is reported as 0.61 ng/mL and the “In vitro activity: IC90” value [2] is reported as 0.78 ng/mL. For the same compound, the “In vitro activity: (IC10)” value [4] was 0.49 ng/mL, the “In vitro activity: IC50” value [4] was 0.64 ng/mL and the “In vitro activity: IC90” value [4] was 0.84 ng/mL.

With `CCN(CC)C1OC2OC3(C)CCC4C(C)CCC(C1C)C24OO3` (stereo not shown) [Example 26] the “In vitro activity: (IC10)” value [2] was 5.05 ng/mL, the “In vitro activity: IC50” value [2] was 9.05 ng/mL and the “In vitro activity: IC90” value [2] was 16.24 ng/mL. The “ANALYSIS FIELD (AF): bound” value [4] was 0.00; 0.00 AF < 4 ng/ml.

`COc1cc(OC)c(C2OC3OC4(C)CCC5C(C)CCC(C2C)C35OO4)c(OC)c1` (mixture of isomers) [Example 12] was tested, and the “In vitro activity: (IC10)” value [2] was 0.35 ng/mL, the “In vitro activity: IC50” value [2] was 0.77 ng/mL and the “In vitro activity: IC90” value [2] was 1.70 ng/mL. The “In vitro activity: (IC10)” value [4] was 0.47 ng/mL, the “In vitro activity: IC50” value [4] was 0.78 ng/mL and the “In vitro activity: IC90” value [4] was 1.32 ng/mL.

With `COc1ccc(C2O[C@@H]3O[C@@]4(C)CC[C@H]5[C@H](C)CC[C@@H]([C@H]2C)[C@@]35OO4)c(OC)c1` (stereo partly shown) [Example 4, 10-(2′,4′-dimethoxyphenyl)-10-deoxo-10-dihydroartemisinin] the “In vitro activity: (IC10)” value [2] was 0.52 ng/mL, the “In vitro activity: IC50” value [2] was 1.05 ng/mL and the “In vitro activity: IC90” value [2] was 2.10 ng/mL. The “In vitro activity: (IC10)” value [4] was 0.40 ng/mL, the “In vitro activity: IC50” value [4] was 0.84 ng/mL and the “In vitro activity: IC90” value [4] was 1.74 ng/mL.

For `CC(NC1OC2OC3(C)CCC4C(C)CCC(C1C)C24OO3)c1ccccc1` (stereo not shown) [Example 30], the “Evaluation of effect” value ([1]; Dose 10^−5 g/ml) was 1, the “Evaluation of effect” value ([1]; Dose 10^−6 g/ml) was 0 and the “In vitro activity: (IC10)” value [2] was 6.74 ng/mL. The “In vitro activity: IC50” value [2] was 11.20 ng/mL, the “In vitro activity: IC90” value [2] was 18.61 ng/mL and the “Effectiveness rating” value ([3]; Dose 10^−5 g/ml) was “T”. For the same compound, the “Effectiveness rating” value ([3]; Dose 10^−6 g/ml) was 2 (2 = active 1-6 parasites per well) and the “Effectiveness rating” value ([3]; Dose 10^−7 g/ml) was 0 (0 = inactive >1 intact schizont/optical field of vision).

With `COc1cc(OC)c(C2OC3OC4(C)CCC5C(C)CCC(C2C)C35OO4)c(OC)c1` (stereo not shown) [Example 44] the “In vitro activity: (IC10)” value [2] was 0.29 ng/mL, the “In vitro activity: IC50” value [2] was 0.69 ng/mL and the “In vitro activity: IC90” value [2] was 1.67 ng/mL. For the same compound, the “In vitro activity: (IC10)” value [4] was 0.13 ng/mL, the “In vitro activity: IC50” value [4] was 0.3318 ng/mL and the “In vitro activity: IC90” value [4] was 0.8168 ng/mL.

For `CC1CCC2C(C)C(c3ccc(Br)cc3)OC3OC4(C)CCC1C32OO4` (stereo not shown) [Example 38], the “In vitro activity: (IC10)” value [2] was 0.22 ng/mL, the “In vitro activity: IC50” value [2] was 0.90 ng/mL and the “In vitro activity: IC90” value [2] was 3.69 ng/mL. The “In vitro activity: (IC10)” value [4] was 0.55 ng/mL, the “In vitro activity: IC50” value [4] was 1.23 ng/mL and the “In vitro activity: IC90” value [4] was 2.76 ng/mL.
